Structures can show the parent of a compound that is named as a salt. Where two headings read alike, the source gives them in different places.
Columns and labels:
palatine mucosa of frog [1] = experiment: Mucociliary transport of frog palatine mucosa (Example 8, Table 6); assay type: cell-based; settings: mean ± SD, over 20.0% significant, read-out: Acceleration (mucociliary transport); for activation at 100 µg/mL: 10^-1 mg/ml; for activation at 10 µg/mL: 10^-2 mg/ml; for activation at 1 µg/mL: 10^-3 mg/ml; for activation at 0.1 µg/mL: 10^-4 mg/ml
Method: (§1) Mucociliary transport was measured by the particle transport method. After decapitation of a frog, the surface of the palatine mucosa was separated with minimized damage and of fixed to a cork plate in a Petri dish which was then filled with 20 ml of Ringer's solution (trishydrochloric acid). The palatine mucosa was left in this state for 30 minutes before the commencement of measurement. For measurement, the Ringer's solution was removed and fine pieces of cork (capable of passing pharmaceutical sieve No. 5 but not capable of passing No. 6) were placed on the surface of the palatine mucosa, and the time (in seconds) required for the cork piece to move 1 cm was measured. The duration of movement, i.e., moving speed, was measured also in the state immediately after the removal of the Ringer's solution or pharmaceutical solution.

ciliated cell = experiment: Rotating ciliated explant (Example 9, Table 7); assay type: cell-based; settings: for activation at 10 µg/mL: 10^-2 mg/ml (terbutaline 1-^-2 [sic]); for activation at 10 µg/mL / activation at 1 µg/mL / activation at 0.1 µg/mL: mean ± SD, > 20.0 significant, read-out: Acceleration (rotating ciliated explant); for activation at 1 µg/mL: 10^-3 mg/ml; for activation at 0.1 µg/mL: 10^-4 mg/ml
Method: (§2) Human ciliated cells were collected from a normal trachea by means of a branchoscope, the ciliated cells being separated by rubbing the bronchus while observing through the branchoscope, while the collection of frog cilitated cells was conducted by rubbing the palatine mucosta, without being specially careful. […] The groups of cells were transferred to a cover slip and one drop of chicken plasma (prepared by Difco Company) and one drop of 50% chicken embryo extract were added to the cells, thus forming clots. The rotary motion in the clots was recorded by means of a video recorder and the number of rotations per minute was measured. The agents were dissolved in the Medium 199 and were injected through a tube attached to a rose chamber. The state of rotary motion 5 minutes, 10 minutes and 15 minutes after the injection were recorded by means of a video recorder, and the number of revolutions was measured.
A test was conducted to examine the above-mentioned effect by using sodium salt of N-Acetylneuraminic Acid, in accordance with the same testing method as that of Example 2.

[2] = system: ciliated cells from human airway and frog palate; experiment: Rotation of ciliated cell groups (Example 4); assay type: cell-based
Source text: Using ciliated cells from human airway and frog palate, rotation of cell groups due to ciliary beat was observed before and after application of N-acetylneuraminic acid and calcium salt of N-acetylneuraminic acid, in order to confirm the effect of these agents on the cilitated cells.
as §2, with “measured.” for “measured. The agents were dissolved in the Medium 199 and were injected through a tube attached to a rose chamber. The state of rotary motion 5 minutes, 10 minutes and 15 minutes after the injection were recorded by means of a video recorder, and the number of revolutions was measured.”

palatine mucosa of frog [3] = experiment: Ciliary movement of frog palatine mucosa, particle transport method (Example 3, Tables 1-3); assay type: cell-based, bull frog; settings: for activation at 100 µg/mL / activation at 10 µg/mL: control = 0
Method: Bull frogs (furnished by Saitama Test Animal) weighing 300 to 450 g were used regardless of sex.
N-acetylneuraminic acid and calcium salt of N-acetylneuraminic acid (provided by Kanto Ishiseiyaku Kabushiki Kaisha), as well as acetylcholine chloride (furnished by Sigma Kabushiki Kaisha) were used as the test substances.
as §1

## CC(=O)OCC[N+](C)(C)C.[Cl-] [acetylcholine, acetylcholine chloride, reference compound]
Palatine mucosa of frog [1]; 5 min, 5 min after applied
  activation at 100 µg/mL: 22.8 ± 26.1%
  activation at 10 µg/mL: 17.5 ± 14.3%
  activation at 1 µg/mL: 12.3 ± 8.5%
  activation at 0.1 µg/mL: 3 ± 7.6%
Palatine mucosa of frog [1]; 10 min, 10 min after applied
  activation at 100 µg/mL: 31 ± 24.9%
  activation at 10 µg/mL: 18.8 ± 21.1%
  activation at 1 µg/mL: 19.9 ± 16.8%
  activation at 0.1 µg/mL: 3.8 ± 15.5%
Palatine mucosa of frog [1]; 0.25 h, 15 min after applied
  activation at 100 µg/mL: 30.5 ± 19.5%
  activation at 10 µg/mL: 24.9 ± 25.6%
  activation at 1 µg/mL: 13.9 ± 20.5%
  activation at 0.1 µg/mL: -5.5 ± 10%
Ciliated cell; 5 min, 5 min after perfusion
  activation at 10 µg/mL: 58.1 ± 38.1%
  activation at 1 µg/mL: 27.8 ± 12.2%
  activation at 0.1 µg/mL: -1.7%
Ciliated cell; 10 min, 10 min after perfusion
  activation at 10 µg/mL: 52 ± 32.6%
  activation at 1 µg/mL: 10.6 ± 15%
  activation at 0.1 µg/mL: 0.8%
Ciliated cell; 0.25 h, 15 min after perfusion
  activation at 10 µg/mL: 44.5 ± 22%
  activation at 1 µg/mL: 20.8 ± 26.4%
  activation at 0.1 µg/mL: 14.6%
Ciliated cell; between 10^-3 and 10^-2 mg/ml
  Effect on rotation: increase in the rotation in a certan dependency on the dose
[2]; 3×10^-3 mg/ml
  Time of speed peak of rotary motion after application: ~5 min
[2]; 10^-3 mg/ml
  Time of speed peak of rotary motion after application: about 10 minutes
[2]; 10^-3 mg/ml and 3×10^-3 mg/ml
  Effect on speed of rotary motion of the cilium cells: the speed of rotary motion of the cilium cells is increased
[2]; 10^-3 and 3×10^-3 mg/ml, both cases
  Time after application at which rotary motion stopped: 13 min
Palatine mucosa of frog [3]; 10^-4 g/ml, frog number 1
  Movement: 21.0 s/cm
Palatine mucosa of frog [3]; 10^-4 g/ml, frog number 2
  Movement: 21.7 s/cm
Palatine mucosa of frog [3]; 10^-4 g/ml, frog number 3
  Movement: 20.7 s/cm
Palatine mucosa of frog [3]; 10^-5 g/ml, frog number 1
  Movement: 27.0 s/cm
Palatine mucosa of frog [3]; 10^-5 g/ml, frog number 2
  Movement: 29.7 s/cm
Palatine mucosa of frog [3]; 10^-5 g/ml, frog number 3
  Movement: 26.3 s/cm
Palatine mucosa of frog [3]; read-out: Acceleration, 10^-4 g/ml, frog number 1
  activation at 100 µg/mL: 53.3%
Palatine mucosa of frog [3]; read-out: Acceleration, 10^-4 g/ml, frog number 2
  activation at 100 µg/mL: 41.4%
Palatine mucosa of frog [3]; read-out: Acceleration, 10^-4 g/ml, frog number 3
  activation at 100 µg/mL: 47.3%
Palatine mucosa of frog [3]; read-out: Acceleration, 10^-5 g/ml, frog number 1
  activation at 10 µg/mL: 40%
Palatine mucosa of frog [3]; read-out: Acceleration, 10^-5 g/ml, frog number 2
  activation at 10 µg/mL: 19.7%
Palatine mucosa of frog [3]; read-out: Acceleration, 10^-5 g/ml, frog number 3
  activation at 10 µg/mL: 33.1%

## CC(C)(C)NCC(O)c1cc(O)cc(O)c1 (stereo not shown) [terbutaline, 5-[2-[(1.1-dimetylethyl)amino]-1-hydoxyethyl]-1,3-benzenediole]
Ciliated cell; 10^-4 to 10^- mg/ml (so in the source)
  Effect on rotation: general tendency of increase of the rotation
Ciliated cell; 5 min, 5 min after perfusion
  activation at 10 µg/mL: 18.6 ± 0.3%
  activation at 1 µg/mL: 51.2 ± 36%
  activation at 0.1 µg/mL: -5.2 ± 12.2%
Ciliated cell; 10 min, 10 min after perfusion
  activation at 10 µg/mL: 24.8 ± 3.5%
  activation at 1 µg/mL: 37.2 ± 35.5%
  activation at 0.1 µg/mL: 1.6 ± 4.6%
Ciliated cell; 0.25 h, 15 min after perfusion
  activation at 10 µg/mL: 2.7 ± 7.4%
  activation at 1 µg/mL: 42.1 ± 32.8%
  activation at 0.1 µg/mL: 6.7 ± 3%
[2]; 10^-3 to 3×10^-2 mg/ml
  Effect on rotary motion of the cilium cells: the rotary motion of the cilium cells is increased
[2]; 5 minutes after application, 10^-3 to 3×10^-2 mg/ml
  Effect on rotary motion, time dependence: particularly remarkable 5 minutes after the application

## CC(=O)N[C@H]1[C@H]([C@H](O)[C@H](O)CO)OC(O)(C(=O)O)C[C@@H]1O (stereo partly shown) [calcium salt of N-acetylneuraminic acid]
Palatine mucosa of frog [3]; 10^-4 g/ml, frog number 1
  Movement: 23.0 s/cm
Palatine mucosa of frog [3]; 10^-4 g/ml, frog number 1, read-out: Acceleration
  activation at 100 µg/mL: 39%
Palatine mucosa of frog [3]; 10^-4 g/ml, frog number 2
  Movement: 29.0 s/cm
Palatine mucosa of frog [3]; 10^-4 g/ml, frog number 2, read-out: Acceleration
  activation at 100 µg/mL: 28.7%
Palatine mucosa of frog [3]; 10^-4 g/ml, frog number 3
  Movement: 19.7 s/cm
Palatine mucosa of frog [3]; 10^-4 g/ml, frog number 3, read-out: Acceleration
  activation at 100 µg/mL: 46.8%
Palatine mucosa of frog [3]; 10^-5 g/ml, frog number 1
  Movement: 25.0 s/cm
Palatine mucosa of frog [3]; 10^-5 g/ml, frog number 1, read-out: Acceleration
  activation at 10 µg/mL: 33.7%
Palatine mucosa of frog [3]; 10^-5 g/ml, frog number 2
  Movement: 29.3 s/cm
Palatine mucosa of frog [3]; 10^-5 g/ml, frog number 2, read-out: Acceleration
  activation at 10 µg/mL: 28%
Palatine mucosa of frog [3]; 10^-5 g/ml, frog number 3
  Movement: 24.3 s/cm
Palatine mucosa of frog [3]; 10^-5 g/ml, frog number 3, read-out: Acceleration
  activation at 10 µg/mL: 34.2%
Palatine mucosa of frog [3]; Tables 1 and 3
  Effect on ciliary movement of palatine mucosa: acceleration of the ciliary movement of palatine mucosa in a certain dose-dependency
Palatine mucosa of frog [3]; acetylcholine control at 10^-5 and 10^-4
  Ciliary movement promoting effect compared with acetylcholine: substantially the same ciliary movement promoting effect as the acetylcholine

From patent US4698332A, “Expectorant” (Mect Corporation, priority 1984, dated 1987)
